Patent publication US8455448B2, “Myostatin isoform” (Myostin Therapeutics Pty Ltd, priority 2004, dated 2013)
Where no end group is shown, it is not given here.

How the values were obtained:
[1] = system: human skeletal muscle myoblasts; assay: Proliferation assay of human primary myoblasts (methylene blue); format: cell-based
Protocol: (§1) Human skeletal muscle myoblasts (Cambrex, Australia) were seeded in 96-well tissue culture plates (Nunc, Roskilde, Denmark) at a cell density of 2000 cells per well in 200 μl of Skeletal Muscle Basal Medium (Cambrex, Australia) supplemented with foetal bovine serum (FBS, 10% v/v, Cambrex, Australia), and incubated overnight at 37° C. with 5% CO2. The medium was replaced with Dulbecco's modified Eagle's medium (DMEM, Invitrogen, California) supplemented with 5% foetal bovine serum (FBS, Invitrogen, California), penicillin (1×10^5 IU/l, Sigma, St Louis, Mo., USA) and streptomycin (100 mg/l, Sigma) buffered with NaHCO3 containing phenol red (7.22 nmol/l) as a pH indicator with 0, 0.1, 1, 5 and 10 μg/ml rhMSV38 or roMSV47 protein in a semi-random arrangement of eight replicates (n=8) for each test medium. Plates were incubated at 37° C. with 5% CO2 for 96 hours, and then the medium was removed. The wells were washed with 200 μl of phosphate buffered saline (PBS, Oxoid, UK) buffer and fixed with 100 μl of 10% formaldehyde, 0.9% NaCl solution for at least one hour. The fixative was then removed and 100 μl of 1% methylene blue stain in 0.01 M borate buffer (pH 8.5) was added to each well and incubated for 30 min at room temperature. Excess stain was removed by four sequential washes in borate buffer. Methylene blue was eluted from the cells by the addition of 100 μl 1:1 (v/v) ethanol/0.1 HCl. The plates were gently shaken and the absorbance was measured at 655 nm using a microplate photometer (VersaMax, Molecular Devices, CA).
Human skeletal muscle myoblasts (Cambrex, Australia) were seeded in 96-well tissue culture plates (Nunc, Roskilde, Denmark) at a cell density of 2000 cells per well in 200 μl of Skeletal Muscle Basal Medium (Cambrex, Australia) supplemented with foetal bovine serum (FBS, 10% v/v, Cambrex, Australia), and incubated overnight at 37° C. with 5% CO2. The medium was replaced with Dulbecco's modified Eagle's medium (DMEM, Invitrogen, California) supplemented with 5% foetal bovine serum (FBS, Invitrogen, California), penicillin (1×10^5 IU/l, Sigma, St Louis, Mo., USA) and streptomycin (100 mg/l, Sigma) buffered with NaHCO3 containing phenol red (7.22 nmol/l) as a pH indicator with no added protein, 1.5 or 3.0 μg/ml recombinant bovine mature myostatin alone and with combination of 0.3, 1, 3, 10 molar ratio of rhMSV38 to myostatin, and the same amounts of rhMSV38 without myostatin in a semi-random arrangement of eight replicates (n=8) for each test medium. Plates were incubated at 37° C. with 5% CO2 for 48 hours, and then the medium was removed. […] The plates were gently shaken and the absorbance was measured at 655 nm using a microplate photometer (VersaMax, Molecular Devices, CA).

murine C2C12 myoblasts = assay: Proliferation assay of C2C12 murine myoblasts (methylene blue, absorbance 655 nm); format: cell-based
Protocol: (§2) Myoblasts were seeded in 96-well tissue culture plates (Nunc, Roskilde, Denmark) at a cell density of 1000 cells per well in 200 μl of Dulbecco's modified Eagle's medium (DMEM, Invitrogen, California) supplemented with foetal bovine serum (FBS, 10% v/v, Invitrogen), penicillin (1×10^5 IU/l, Sigma, St Louis, Mo., USA) and streptomycin (100 mg/l, Sigma) buffered with NaHCO3 containing phenol red (7.22 nmol/l) as a pH indicator, and incubated overnight at 37° C. with 5% CO2. Medium was replaced with DMEM 10% FBS test medium containing 0, 0.001, 0.003, 0.01, 0.03, 0.1, 0.3, 1, 3 or 10 μg/ml oMSV65 in a semi-random arrangement of eight replicates (n=8) for each test medium. Plates were incubated at 37° C. with 5% CO2 for 72 hours, and then the medium was removed. The wells were washed with 200 μl of phosphate buffered saline (PBS, Oxoid, UK) and fixed with 100 μl of 10% formaldehyde, 0.9% NaCl solution for at least one hour. The fixative was then removed and 100 μl of 1% methylene blue stain in 0.01 M borate buffer (pH 8.5) was added to each well and incubated for 30 min at room temperature. Excess stain was removed by four sequential washes in borate buffer. Methylene blue was eluted from the cells by the addition of 100 μl 1:1 (v/v) ethanol/0.1 HCl. The plates were gently shaken and the absorbance was measured at 655 nm using a microplate photometer (FIGS. 3a and 3b).
as §2, with “0,” for “0, 0.001, 0.003,”, “0.01,” for “0.01, 0.03,”, “1” for “0.3, 1, 3”, “oMSV47” for “oMSV65”, “60” for “72”, “(FIG. 9).” for “(FIGS. 3a and 3b).”
Myoblasts were seeded in 96-well tissue culture plates (Nunc, Roskilde, Denmark) at a cell density of 1000 cells per well in […] of Dulbecco's modified Eagle's medium (DMEM, Invitrogen, California) supplemented with foetal bovine serum (FBS, 10% v/v, Invitrogen), penicillin (1×10^5 IU/l, Sigma, St Louis, Mo., USA) and streptomycin (100 mg/l, Sigma) buffered with NaHCO3 containing phenol red (7.22 nmol/l) as a pH indicator, and incubated overnight at 37° C. with 5% CO2. Medium was replaced with DMEM 2.5% FBS test medium containing 0, 0.01, 0.1, 1, 5 or 10 μg/ml of the respective peptides in a semi-random arrangement of eight replicates (n=8) for each test medium. Plates were incubated at 37° C. with 5% CO2 for 80 hours, and then the medium was removed. The wells were washed with 200 μl of phosphate buffered saline (PBS, Oxoid, UK) and fixed with 100 μl of 10% formaldehyde, 0.9% NaCl solution for at least one hour. The fixative was then removed and 100 μl of 1% methylene blue stain in 0.01 M borate buffer (pH 8.5) was added to each well and incubated for 30 min at room temperature. Excess stain was removed by four sequential washes in borate buffer. Methylene blue was eluted from the cells by the addition of 100 μl 1:1 (v/v) ethanol/0.1 HCl. […]

myostatin = target: T1, myostatin (Bos taurus, UniProt O18836); assay: rhMSV38/mature myostatin competition in human primary myoblast proliferation assay; format: cell-based, bovine; details: FIG. 13
T1 sequence (O18836 267-375): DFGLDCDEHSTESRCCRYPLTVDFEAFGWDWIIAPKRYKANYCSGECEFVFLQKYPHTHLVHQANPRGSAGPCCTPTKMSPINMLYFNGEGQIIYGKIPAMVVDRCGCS
Protocol: as §1, with “with no added protein, 1.5 or 3.0 μg/ml recombinant bovine mature myostatin alone and with combination of 0.3,” for “with 0, 0.1,”, “1, 3, 10 molar ratio of rhMSV38 to myostatin,” for “1, 5”, “and the same amounts of” for “and 10 μg/ml”, “rhMSV38 without myostatin” for “rhMSV38 or roMSV47 protein”, “for 48” for “for 96”

molar ratio rhMSV38:myostatin at which restoration was achieved (myostatin; double the concentration of myostatin (3 μg/ml Mstn), 48 h) | Substance | proliferation of human myoblasts under myostatin ([1]; 1.5 or 3 μg/ml Mstn, 48 h, FIG. 13) | myoblast proliferation under myostatin (murine C2C12 myoblasts; 1.5 μg/ml myostatin, C2C12, FIG. 9) | proliferation of human myoblasts ([1]; 0-10 μg/ml, 96 h, FIG. 12B) | proliferation of human primary myoblasts ([1]; rhMSV38 without myostatin, 48 h, FIG. 13) | proliferation of murine C2C12 myoblasts (murine C2C12 myoblasts; 0-10 μg/ml, DMEM 2.5% FBS, 80 h, FIG. 12A and FIG. 17) | overcoming the inhibitory effect of myostatin on proliferation of human myoblasts (myostatin; 1.5 μg/ml Mstn, 48 h) | antagonism of myostatin, proliferation relative to controls (myostatin; 1:10 molar ratio of myostatin to rhMSV38, 48 h)
– | myostatin: recombinant bovine mature myostatin, negative regulator of muscle growth [reference compound] | inhibitory effect | inhibited myoblast proliferation | – | – | – | – | –
1 × molar ratio | rhMSV38: recombinant human MSV38 expressed in E. coli (VHFPTPPNEEWIFFNVRRIIFLEVGFQFCSILGETALS; not fully specified) | – | – | stimulate myoblast proliferation | stimulate proliferation of human primary myoblasts in a dose dependent manner | stimulate myoblast proliferation | able to overcome the inhibitory effect of myostatin | increases proliferation beyond that of controls
